Ki data for ten molecules are collected here from ChEMBL document CHEMBL1127160, “Phenylalkyl ketones as potent reversible inhibitors of interleukin-1 converting enzyme” (Bioorg Med Chem Lett, 1993).

Bounds are passed on as bounds.

This assay concerns the target T1, Caspase-1 (Homo sapiens, UniProt P29466).
T1 sequence (P29466 whole entry): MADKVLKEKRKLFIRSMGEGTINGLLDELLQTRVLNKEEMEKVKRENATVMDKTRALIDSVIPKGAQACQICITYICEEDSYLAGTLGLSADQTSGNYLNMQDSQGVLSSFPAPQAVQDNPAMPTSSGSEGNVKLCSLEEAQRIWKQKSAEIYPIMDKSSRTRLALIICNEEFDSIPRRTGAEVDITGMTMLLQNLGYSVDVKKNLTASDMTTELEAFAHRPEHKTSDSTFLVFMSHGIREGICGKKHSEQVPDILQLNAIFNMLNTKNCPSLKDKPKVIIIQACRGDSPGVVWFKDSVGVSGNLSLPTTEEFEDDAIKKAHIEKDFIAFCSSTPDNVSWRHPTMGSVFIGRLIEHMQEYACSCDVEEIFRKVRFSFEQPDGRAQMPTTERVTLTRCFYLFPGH
The assay can be described thus: The compound was tested for its inhibitory activity against IL-1 beta converting enzyme.
Broadly, the Ki is a measure of affinity in units of concentration, obtained from inhibition or displacement. `CC(C)[C@H](NC(=O)CCc1ccccc1)C(=O)N[C@@H](C)C(=O)N[C@@H](CC(=O)O)C(=O)Cc1ccccc1` came in with a Ki of 3.1 µM.

Turning to `CC(C)[C@H](NC(=O)CCc1ccccc1)C(=O)N[C@@H](C)C(=O)N[C@@H](CC(=O)O)C(=O)CCc1ccccc1`, the Ki came out at 0.61 µM. This Ki is about 5.1-fold lower than that of the molecule before.

The molecule `CC(=O)N[C@@H](Cc1ccc(O)cc1)C(=O)N[C@H](C(=O)N[C@@H](C)C(=O)N[C@@H](CC(=O)O)C(=O)c1ccccc1)C(C)C` (stereo in doubt) came in with an inhibition constant (Ki) of 10 µM.

`CCC(=O)[C@H](CC(=O)O)NC(=O)[C@H](C)NC(=O)[C@@H](NC(=O)[C@H](Cc1ccc(O)cc1)NC(C)=O)C(C)C` registered a Ki of 4 µM.

For `CC(=O)N[C@@H](Cc1ccc(O)cc1)C(=O)N[C@H](C(=O)N[C@@H](C)C(=O)N[C@@H](CC(=O)O)C(=O)CCCCc1ccccc1)C(C)C`, the affinity corresponds to a Ki of 0.042 µM. This Ki lies about 95-fold lower than the previous one.

For the molecule `CC(=O)N[C@@H](Cc1ccc(O)cc1)C(=O)N[C@H](C(=O)N[C@@H](C)C(=O)N[C@@H](CC(=O)O)C(=O)C1CCCCC1)C(C)C`, the Ki is more than 100 µM.

The molecule `CC(=O)N[C@@H](Cc1ccc(O)cc1)C(=O)N[C@H](C(=O)N[C@@H](C)C(=O)N[C@@H](CC(=O)O)C(=O)CCCCCc1ccccc1)C(C)C` showed a Ki of 0.0185 µM.

In turn, `CC(=O)N[C@@H](Cc1ccc(O)cc1)C(=O)NC(C(=O)N[C@@H](C)C(=O)NC(CC(=O)O)C(C)=O)C(C)C` (single isomer, unassigned) yielded a Ki of more than 10 µM.

For the molecule `CC(=O)N[C@@H](Cc1ccc(O)cc1)C(=O)N[C@H](C(=O)N[C@@H](C)C(=O)N[C@@H](CC(=O)O)C(=O)c1ccccc1)C(C)C` (stereo in doubt; 7c), the Ki is more than 100 µM.

Molecule `CC(C)[C@H](NC(=O)CCc1ccccc1)C(=O)N[C@@H](C)C(=O)N[C@@H](CC(=O)O)C(=O)CCCc1ccccc1` yielded an inhibition constant Ki of 0.1 µM.
